Laboratory results from article PMC6225253, “Chemical Constituents and Antidepressant-Like Effects in Ovariectomized Mice of the Ethanol Extract of Alternanthera philoxeroides” (Molecules : A Journal of Synthetic Chemistry and Natural …, 2018).

Columns and labels:
[1] = target: T1, recombinant human MAO-A (Homo sapiens, UniProt P21397); assay: Human MAO-A inhibitory assay (kynuramine, fluorescence of 4-hydroxyquinoline); type: biochemical; settings: for Ki: from IC50 by Cheng–Prusoff, Km 16.1 μM; for Si MAO-A (selectivity index between MAO-A and MAO-B): ratio of Ki values; for IC50: recombinant human MAO-A, kynuramine, pH 7.4, 37 °C, 20 min, mean ± SD
T1 construct: purchased Sigma-Aldrich
T1 sequence (P21397 1-527): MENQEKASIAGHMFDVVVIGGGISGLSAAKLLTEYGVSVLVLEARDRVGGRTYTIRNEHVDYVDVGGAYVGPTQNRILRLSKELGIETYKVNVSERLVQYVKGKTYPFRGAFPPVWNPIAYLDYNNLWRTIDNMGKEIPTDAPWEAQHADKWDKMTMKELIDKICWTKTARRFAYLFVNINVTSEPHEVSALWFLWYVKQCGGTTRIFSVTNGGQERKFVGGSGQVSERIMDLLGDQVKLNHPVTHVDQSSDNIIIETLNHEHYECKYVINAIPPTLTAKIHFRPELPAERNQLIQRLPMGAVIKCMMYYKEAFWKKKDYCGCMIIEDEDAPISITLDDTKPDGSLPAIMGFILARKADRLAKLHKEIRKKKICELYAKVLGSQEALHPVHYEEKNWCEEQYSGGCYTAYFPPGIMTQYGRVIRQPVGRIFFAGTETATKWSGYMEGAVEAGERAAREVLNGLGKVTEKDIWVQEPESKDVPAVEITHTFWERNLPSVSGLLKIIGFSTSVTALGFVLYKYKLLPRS
Method: (§1) The crude ethanol extract of A. philoxeroides, together with its constituents, alternanthin (1a), althernanthin B (1b), torosaflavone E (3a), dimethyltorosaflavone D (3b) and chrysoeriol 7-rhamnoside (5) were tested for their inhibitory activity on MAO-A and MAO-B, using the recombinant human MAO-A and MAO-B. The rates of MAO catalysis was determined by measuring the production of 4-hydroxyquinoline by fluorescence spectrophotometry. […] For this purpose, Km values for the oxidation of kynuramine by MAO-A and MAO-B were used from previous studies, i.e., 16.1 μM for human MAO-A and 22.7 μM for human MAO-B [15].
(§2) The MAOs inhibitory activity assay of the A. philoxeroides extract and some of its flavonoid constituents, using recombinant human MAO-A and MAO-B (Sigma-Aldrich, St. Louis, MO, USA) as enzyme sources, was performed according to the method described by Manley-King et al.. Briefly, the crude extract 100 mg was dissolved in 400 µL DMSO to prepare 250 mg/mL as a stock solution. Serial dilution of test samples (20 µL) for each concentration was used to test the activity. For 1a, 1b, 3a, 3b and 5, a stock solution of 1000 μM in DMSO was prepared and a serial dilution of the test sample (20 μL) of each concentration was used to test the activity. Concentration of MAOs was 0.0075 mg/mL for MAO-A inhibitor test, 9 µL of kynuramine (Sigma-Aldrich, St. Louis, MO, USA) was mixed with 469.5 µL of potassium phosphate buffer (pH 7.4). For MAO-B inhibitor test, 6 µL of kynuramine was mixed with 472.5 µL of potassium phosphate buffer (pH 7.4). Then 1.5 µL of the enzymes were added before incubation at 37 °C for 20 min. The reaction was stopped by adding 400 µL of 2N NaOH and 1000 µL of water. Measurement of 4-hydroxyquinoline (Sigma-Aldrich, St. Louis, MO, USA) was carried out by fluorescence spectrophotometry with the excitation wavelength at 310 nm and the emission wavelength at 400 nm. […] Data were analyzed by Prism 5 software package (GraphPad Software, version 5, San Diego, CA, USA). The IC50 values were converted to the corresponding Ki values according to the equation Ki = IC50/(1+[S]/Km).

[2] = target: T2, recombinant human MAO-B (Homo sapiens, UniProt P27338); assay: Human MAO-B inhibitory assay (kynuramine, fluorescence of 4-hydroxyquinoline); type: biochemical; settings: for Isoform selectivity from the selectivity index, MAO-B: based on Si; for Ki: from IC50 by Cheng–Prusoff, Km 22.7 μM; for Si MAO-B (selectivity index between MAO-A and MAO-B): ratio of Ki values; for IC50: recombinant human MAO-B, kynuramine, pH 7.4, 37 °C, 20 min, mean ± SD
T2 construct: purchased Sigma-Aldrich
T2 sequence (P27338 1-520): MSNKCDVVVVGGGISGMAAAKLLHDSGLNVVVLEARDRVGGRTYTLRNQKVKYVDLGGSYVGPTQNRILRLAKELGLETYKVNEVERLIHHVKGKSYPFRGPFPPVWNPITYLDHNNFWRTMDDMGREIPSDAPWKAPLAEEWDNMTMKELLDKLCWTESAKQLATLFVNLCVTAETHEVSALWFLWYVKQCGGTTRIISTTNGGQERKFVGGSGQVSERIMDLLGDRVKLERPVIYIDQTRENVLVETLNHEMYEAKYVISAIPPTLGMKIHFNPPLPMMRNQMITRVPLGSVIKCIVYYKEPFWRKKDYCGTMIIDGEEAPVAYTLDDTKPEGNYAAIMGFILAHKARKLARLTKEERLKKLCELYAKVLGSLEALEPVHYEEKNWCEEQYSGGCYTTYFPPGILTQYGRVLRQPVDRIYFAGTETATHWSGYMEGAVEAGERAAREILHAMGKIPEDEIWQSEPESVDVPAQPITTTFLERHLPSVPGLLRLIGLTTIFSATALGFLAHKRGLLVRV
Method: as §1, §2

| Compound | Ki [1] | Si MAO-A (selectivity index between MAO-A and MAO-B) [1] | Isoform selectivity from the selectivity index, MAO-B [2] | Ki [2] | Si MAO-B (selectivity index between MAO-A and MAO-B) [2] | IC50 [2] | IC50 [1] | melting point | Isoform selectivity from the selectivity index, MAO-A ([1]; based on Si) |
| --- | --- | --- | --- | --- | --- | --- | --- | --- | --- |
| COc1cc(-c2cc(=O)c3c(O)c(/C=C/C(=O)O)c(O)cc3o2)ccc1O [Compound 3a, torosaflavone E] | 4840 nM | 16.6534 | partially selective for MAO-B isoform | 290 nM | 0.0601 | 675 ± 460 nM | 18400 ± 1470 nM | 250 to 252 °C |  |
| COc1cc(-c2cc(=O)c3c(O)cc(O[C@@H]4O[C@@H](C)[C@H](O)[C@@H](O)[C@H]4O)cc3o2)ccc1O [Compound 5, chrysoeriol 7-O-rhamnoside] | 804 nM | 3.4303 | partially selective for MAO-B isoform | 234 nM | 0.2915 | 544 ± 330 nM | 3050 ± 350 nM |  |  |

Compounds with a lower Ki [1], results first:

| Ki [1] | Si MAO-A (selectivity index between MAO-A and MAO-B) [1] | Isoform selectivity from the selectivity index, MAO-B [2] | Ki [2] | Si MAO-B (selectivity index between MAO-A and MAO-B) [2] | IC50 [2] | IC50 [1] | melting point | Isoform selectivity from the selectivity index, MAO-A ([1]; based on Si) | Compound |
| --- | --- | --- | --- | --- | --- | --- | --- | --- | --- |
| 133 nM | 2.3850 | partially selective for MAO-B isoform | 55.7 nM | 0.4193 | 129 nM |  |  |  | O=C(O)/C=C/c1c(O)cc2oc(-c3ccc(O)c(O)c3)cc(=O)c2c1O [Compound 3b, demethyltorosaflavone D] |
| 0.54 nM | 5.6681 | partially selective for MAO-B isoform | 0.1 nM | 0.1764 |  | 2.06 nM |  |  | C[C@H]1O[C@@H](c2c(O)cc3oc(-c4ccc(O)c(O)c4)cc(=O)c3c2O)C[C@H](O)[C@H]1O [Compound 1b, alternanthin B] |
| 0.12 nM | 0.4681 |  | 0.26 nM | 2.1364 |  |  |  | partially selective for MAO-A isoform | COc1cc(-c2cc(=O)c3c(O)c([C@H]4C[C@H](O)[C@@H](O)[C@@H](C)O4)c(O)cc3o2)ccc1O [Compound 1a, altheranthin] |
